The values that follow come from ChEMBL document CHEMBL4765481, “Sialyltransferase Inhibitors Suppress Breast Cancer Metastasis” (J Med Chem, 2021).

Calls of active or inactive are those of the source. No cut-off for these calls is given here.

For series [1], the target named is T1, Beta-galactoside alpha-2,6-sialyltransferase 1 (Homo sapiens, UniProt P15907).
T1 sequence (P15907 whole entry): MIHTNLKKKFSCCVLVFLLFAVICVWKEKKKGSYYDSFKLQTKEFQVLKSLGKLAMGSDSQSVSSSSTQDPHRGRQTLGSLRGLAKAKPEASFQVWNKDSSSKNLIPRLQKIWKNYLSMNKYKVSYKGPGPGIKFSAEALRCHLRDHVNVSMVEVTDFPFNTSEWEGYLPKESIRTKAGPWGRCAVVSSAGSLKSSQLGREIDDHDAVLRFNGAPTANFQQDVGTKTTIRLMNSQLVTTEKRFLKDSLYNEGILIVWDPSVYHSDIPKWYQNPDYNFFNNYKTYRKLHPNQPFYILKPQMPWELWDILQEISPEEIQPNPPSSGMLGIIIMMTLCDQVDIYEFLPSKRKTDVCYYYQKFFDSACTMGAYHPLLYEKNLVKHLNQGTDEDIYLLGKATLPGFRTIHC
Nature of the series: Inhibition of human alpha-2,6-ST6GAL1 assessed as reduction in sialylated-product formation using Gal-beta1-4GlcNac and CMP-NeuSAc incubated for 15 mins by reverse-phase HPLC analysis.

Series [2] deals with T2, Sialyltransferase ST3Gal-I (Rattus norvegicus) (UniProt Q6H8N0).
T2 sequence (whole entry): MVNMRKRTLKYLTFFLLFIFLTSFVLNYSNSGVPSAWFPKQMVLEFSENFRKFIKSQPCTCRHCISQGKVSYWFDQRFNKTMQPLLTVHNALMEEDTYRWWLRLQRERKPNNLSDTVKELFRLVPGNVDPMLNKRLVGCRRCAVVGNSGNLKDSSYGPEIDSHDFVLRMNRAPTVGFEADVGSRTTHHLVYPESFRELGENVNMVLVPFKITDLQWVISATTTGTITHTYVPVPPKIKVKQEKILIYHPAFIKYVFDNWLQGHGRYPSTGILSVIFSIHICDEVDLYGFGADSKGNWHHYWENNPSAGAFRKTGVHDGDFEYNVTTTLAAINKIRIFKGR
Nature of the series: Inhibition of rat alpha-2,3-O-ST3GALI assessed as reduction in sialylated-product formation at 500 uM using p-nitrophenyl T-antigen and CMP-NeuSAc incubated for 15 mins by reverse-phase HPLC analysis relative to control.

Series [3] has as its target T2, Sialyltransferase ST3Gal-I (Rattus norvegicus). In words: Inhibition of rat alpha-2,3-O-ST3GALI assessed as reduction in sialylated-product formation at 1 mM using p-nitrophenyl T-antigen and CMP-NeuSAc incubated for 15 mins by reverse-phase HPLC analysis relative to control.
The species entered for another series is Rattus norvegicus. Nature of the series: Selectivity ratio of inhibition of rat alpha-2,3-O-ST3GALI at 500 uM to IC50 for inhibition of rat alpha-2,3-N-ST3GALIII.
A short description of series [4]: Selectivity ratio of IC50 for of inhibition of rat alpha-2,3-O-ST3GALI to IC50 for inhibition of human alpha-2,6-ST6GAL1.
Series [5] is described as follows: Toxicity in human MDA-MB-231 cells assessed as cell survival at >60 uM relative to control. Type of series: cell-based. As to conditions: read-out: Survival.
Series [6] deals with MDA-MB-231. Nature of the series: Inhibition of Sialyltransferase in human MDA-MB-231 cells assessed as suppression of sialylation of integrin subunit beta1/beta3/beta4/beta5 at 10 to 20 um after 48 hrs by Western blot analysis. Type of series: cell-based. Conditions: dose 10-20 µM. (In general: In western blotting, separated proteins are transferred to a membrane and probed.)

Series [7] deals with MDA-MB-231. In words: Antitumor activity against luciferase-tagged human MDA-MB-231 cells xenografted in BALB/c mouse assessed as induction of tumor suppression at 10 mg/kg/3 days, ip measured after 8 weeks. It is filed as functional, organism-based.
In series [8] the test system is MDA-MB-231. Nature of the series: Antitumor activity against luciferase-tagged human MDA-MB-231 cells xenografted in BALB/c mouse assessed as induction of delayed lung metastasis at 10 mg/kg/3 days, ip measured after 8 weeks. Type of series: functional, organism-based.
The test system of series [9] is MDA-MB-231. In words: Antitumor activity against luciferase-tagged human MDA-MB-231 cells xenografted in BALB/c mouse assessed as reduction in metastatic nodules in lymph node at 10 mg/kg/3 days, ip measured after 8 weeks by H and E staining based histological analysis. It is filed as functional, organism-based. Background: A xenograft is tissue or cells of one species grown in another, often human tumour cells in immunodeficient mice.

In series [10] the test system is MDA-MB-231. In words: Antiangiogenesis activity against luciferase-tagged human MDA-MB-231 cells xenografted in BALB/c mouse assessed as reduction in cell proliferation by measuring Ki67 expression at 10 mg/kg/3 days, ip measured after 8 weeks by immunostaining. Type of series: functional, organism-based.
The subject of series [11] is MDA-MB-231. In words: Inhibition of Sialyltransferase in human MDA-MB-231 cells assessed as reduction in integrin isoforms expression (alphaV/alpha5/beta1/beta3/beta4/beta5) at 10 to 20 uM incubated for 48 hrs by immunoblot analysis. Type of series: cell-based. As to conditions: dose 10-20 µM.
Series [12] has as its system MDA-MB-231. Nature of the series: Inhibition of Sialyltransferase in human MDA-MB-231 cells assessed as reduction in FAK Tyr397 phosphorylation level at 10 to 20 uM incubated for 48 hrs by immunoblot analysis. It is filed as cell-based. Conditions: dose 10-20 µM.
The test system of series [13] is MDA-MB-231. Nature of the series: Inhibition of Sialyltransferase in human MDA-MB-231 cells assessed as reduction in FAK Tyr925 phosphorylation level at 10 to 20 uM incubated for 48 hrs by immunoblot analysis. Type of series: cell-based. As to conditions: dose 10-20 µM.
Series [14] deals with MDA-MB-231. Nature of the series: Inhibition of Sialyltransferase in human MDA-MB-231 cells assessed as reduction in paxillin Tyr118 phosphorylation level at 10 to 20 uM incubated for 48 hrs by immunoblot analysis. It is filed as cell-based. As to conditions: dose 10-20 µM.
Series [15] relates to MDA-MB-231. Nature of the series: Inhibition of Sialyltransferase in human MDA-MB-231 cells assessed as reduction in IKKalpha/beta Ser176/180 phosphorylation level at 10 to 20 uM incubated for 48 hrs by immunoblot analysis. Type of series: cell-based. As to conditions: dose 10-20 µM.
Series [16] relates to MDA-MB-231. Nature of the series: Inhibition of Sialyltransferase in human MDA-MB-231 cells assessed as reduction in IkappaB-alpha Ser32 phosphorylation level at 10 to 20 uM incubated for 48 hrs by immunoblot analysis. It is filed as cell-based. Conditions: dose 10-20 µM.
Series [17] concerns MDA-MB-231. In words: Inhibition of Sialyltransferase in human MDA-MB-231 cells assessed as reduction in NFkappaB Ser536 phosphorylation level at 10 to 20 uM incubated for 48 hrs by immunoblot analysis. As to conditions: dose 10-20 µM. Type of series: cell-based.
A short description of series [18]: Apparent permeability at pH 7.4 by PAMPA. (In general: In PAMPA a lipid-coated filter parts donor from acceptor wells.)
The species entered for series [19] is Danio rerio. Nature of the series: Antiangiogenic activity in transgenic zebrafish embryos assessed as suppression of intersegmental vessels formation at 20 uM measured at 30 hrs postfertilization by fluorescence microscopy. Type of series: functional, organism-based.
For series [20], the species on record is Danio rerio. In words: Antiangiogenic activity in transgenic zebrafish embryos assessed as suppression of caudal vein plexus formation at 20 uM measured at 30 hrs postfertilization by fluorescence microscopy. Type of series: functional, organism-based.

For orientation: IC50 means the concentration that gives 50% inhibition. As usually defined, the inhibition is the relative decrease from the control value, in per cent. Broadly, the Papp is a coefficient for how fast a substance crosses the barrier. With `C[C@H](CCC(=O)OCCOCCOCCN=[N+]=[N-])[C@H]1CC[C@H]2[C@@H]3CC[C@@H]4C[C@H](OC(=O)[C@H](CC(=O)O)Nc5ccc([N+](=O)[O-])c6nonc56)CC[C@]4(C)[C@H]3CC[C@]12C`, in series [1], the IC50 stood at 3.6 µM. The inhibition in [2] is 0%; in series [3], 60%; in the series on MDA-MB-231 [11] it was “Dose-dependent effect”; in the series on MDA-MB-231 [12] it was “Dose-dependent effect”; in the series on MDA-MB-231 [13], “Dose-dependent effect”; in the series with MDA-MB-231 [14], “Dose-dependent effect”. Further, the Selectivity ratio in the series filed under Rattus norvegicus was over 287. Further, the Ratio IC50 in [4] was over 139. Also, the viability in series [5] was over 90%. Further, the inhibition result with MDA-MB-231 [6], with MDA-MB-231 [15], with MDA-MB-231 [16] and with MDA-MB-231 [17] was “Active” in each case. Also, the outcome in the series on MDA-MB-231 [7], with MDA-MB-231 [8], with MDA-MB-231 [9], in the series on MDA-MB-231 [10], in the series filed under Danio rerio [19] and in the series listed under Danio rerio [20] was Active. The apparent permeability coefficient (Papp) in series [18] is 36 nm/s.
